Data from patent US9018209B2, “Compounds and methods for the treatment of viruses and cancer” (Yale University, priority 2005, dated 2015).
Where two headings read alike, the source gives them in different places.

Legend:
IIIB strain of HIV-1 = assay: Anti-HIV-1 activity: protection of infected MT-2 cells, MTT colorimetric method; type: cell-based; settings: for fold lower potency (higher EC50) than the corresponding DMA ether: Table 2b compounds
MT-2 human T-cells = assay: Cytotoxicity: inhibition of MT-2 cell growth; type: cell-based
From the text: The preparation of the analogues 4a-h involved the reaction between 2-bromothiazole 1 with the corresponding 5-amino-2-R-phenol 2, followed by reaction with 4-bromo-2-methyl-2-butene in presence of Cs2CO3 as a base (Scheme 1; see Table 1 for antiviral activities (EC50) and cytotoxicities (IC50) of these compounds, as determined using human MT-2 cells infected with IIIB strain of HIV-1).
See, Ruiz-Caro, supra. and Lin, et al., Biochem. Pharmacol. 1994, 47, 171-174.

[1] = Table 1B, for 50% protection in MT-2 cells, triplicate samples, NA for EC50 > CC50, read-out: EC50
[2] = Table 1B, for 50% inhibition of MT-2 cell growth, triplicate samples
[3] = Human immunodeficiency virus 1, IIIB, MT2, Table 1a, heteroaryl derivatives, N/A read as no activity, read-out: EC50
[4] = Homo sapiens, MT2, Table 1a, cytotoxicity, MT-2 cells, read-out: IC50
[5] = Human immunodeficiency virus 1, IIIB, MT2, Table of bicyclic-heteroaryl phenyl amines, MT-2 cell assays, read-out: EC50
[6] = Homo sapiens, MT2, Table of bicyclic-heteroaryl phenyl amines, cytotoxicity, MT-2 cell assays, read-out: IC50
[7] = Table 3, thiazoles 18-23, N/A read as no activity, read-out: EC50
[8] = Table 3, cytotoxicity, MT-2 cells, read-out: IC50
[9] = Table of bicyclic-heteroaryl phenyl amines, MT-2 cell assays, read-out: EC50
[10] = Table of bicyclic-heteroaryl phenyl amines, cytotoxicity, MT-2 cell assays, read-out: IC50
[11] = Table 1, compounds 4a-h, human MT-2 cells infected with IIIB strain of HIV-1, N/A read as no activity, read-out: EC50
[12] = Table 1a, heteroaryl derivatives, N/A read as no activity, read-out: EC50
[13] = Table 1, cytotoxicity, MT-2 cells, read-out: IC50
[14] = Table 1a, cytotoxicity, MT-2 cells, read-out: IC50
[15] = Table 2b, derivatives of pyrimidine 11, NA for EC50 > CC50, read-out: EC50
[16] = Homo sapiens, MT2, Table 3, cytotoxicity, MT-2 cells, read-out: IC50

CNc1ncnc(Nc2ccc(Cl)c(OCC=C(C)C)c2)n1 [Compound 7d]
EC50 (IIIB strain of HIV-1; [1]): 31 nM
CC50 (MT-2 human T-cells; [2]): 3100 nM

COc1ccnc(Nc2ccc(C)c(OCC=C(C)C)c2)n1 [Compound 42b, 4-Methoxy-N-(4-methyl-3-(3-methylbut-2-enyloxy)phenyl)pyrimidin-2-amine]
EC50 (IIIB strain of HIV-1; [3]): 320 nM
IC50 (MT-2 human T-cells; [4]): 41000 nM

CC(C)=CCOc1cc(Nc2ncc3ccoc3n2)ccc1Cl [compound 61]
EC50 (IIIB strain of HIV-1; [5]): 130 nM
IC50 (MT-2 human T-cells; [6]): 20000 nM

CC/C(C)=C\COc1cc(Nc2nccs2)ccc1Cl [Compound 18d, (E/Z)-N-(4-chloro-3-(3-methylpent-2-enyloxy)phenyl)thiazol-2-amine]
EC50 (IIIB strain of HIV-1; [7]): 1000 nM
IC50 (MT-2 human T-cells; [8]): 18000 nM

CC(C)=CCOc1cc(Nc2nccc3ccccc23)ccc1C#N [isoquinoline 62b]
EC50 (IIIB strain of HIV-1; [9]): 3 nM
IC50 (MT-2 human T-cells; [10]): 4400 nM

COc1nc(N)nc(Nc2ccc(C#N)c(OCC=C(C)C)c2)n1 [Compound 8j]
EC50 (IIIB strain of HIV-1; [1]): 9 nM
CC50 (MT-2 human T-cells; [2]): 110 nM

CCC(C)=CCOc1cc(Nc2nccs2)ccc1C (mixture of isomers) [Compound 18b, (E/Z)-N-(4-methyl-3-(3-methylpent-2-enyloxy)phenyl)thiazol-2-amine]
EC50 (IIIB strain of HIV-1; [7]): 8000 nM
IC50 (MT-2 human T-cells; [8]): 32000 nM

CC(C)=CCOc1cc(Nc2nccs2)ccc1C [Compound 4b, N-(4-methyl-3-(3-methylbut-2-enyloxy)phenylthiazol)-2-amine]
EC50 (IIIB strain of HIV-1; [11]): 3000 nM
EC50 (IIIB strain of HIV-1; [12]): 3000 nM
IC50 (MT-2 human T-cells; [13]): 17000 nM
IC50 (MT-2 human T-cells; [14]): 17000 nM

CNc1ccnc(Nc2ccc(C#N)c(OCC=C(C)C)c2)n1 [Compound 10d]
EC50 (IIIB strain of HIV-1; [1]): 5 nM
CC50 (MT-2 human T-cells; [2]): 22 nM

COc1nc(Nc2ccc(Cl)c(OCC=C(C)C)c2)nc(OC)n1 [Compound 7h]
EC50 (IIIB strain of HIV-1; [1]): 290 nM
CC50 (MT-2 human T-cells; [2]): 20000 nM

CC(C)=CCOc1cc(Nc2nccs2)ccc1C(C)C [Compound 4g, N-(4-isopropyl-3-(3-methylbut-2-enyloxy)phenylthiazol)-2-amine]
EC50 (IIIB strain of HIV-1; [11]): 23000 nM
IC50 (MT-2 human T-cells; [13]): 23000 nM

CC(C)=CCOc1cc(Nc2ncccn2)ccc1C [Compound 39b, N-(4-Methyl-3-(3-methylbut-2-enyloxy)phenyl)pyrimidin-2-amine]
EC50 (IIIB strain of HIV-1; [3]): 2800 nM
IC50 (MT-2 human T-cells; [4]): 78000 nM

CC(C)=CCOc1cc(Nc2nccc3ccoc23)ccc1C#N [furopyridine 56b]
EC50 (IIIB strain of HIV-1; [9]): 11 nM
IC50 (MT-2 human T-cells; [10]): 91 nM

CC(C)=CCOc1cc(Nc2nc(C)nc(Cl)n2)ccc1Cl [Compound 7e]
EC50 (IIIB strain of HIV-1; [1]): 12000 nM
CC50 (MT-2 human T-cells; [2]): 40000 nM

CC(C)=CCOc1cc(Nc2nccs2)ccc1Cl [Compound 4d, N-(4-chloro-3-(3-methylbut-2-enyloxy)phenylthiazol)-2-amine]
EC50 (IIIB strain of HIV-1; [11]): 300 nM
EC50 (IIIB strain of HIV-1; [12]): 300 nM
IC50 (MT-2 human T-cells; [13]): 26000 nM
IC50 (MT-2 human T-cells; [14]): 26000 nM

COc1ccnc(Nc2ccc(Cl)c(Oc3ccccc3)c2)n1 [Compound 11d]
fold lower potency (higher EC50) than the corresponding DMA ether (IIIB strain of HIV-1): ca. 100 fold
EC50 (IIIB strain of HIV-1; [15]): 2500 nM
CC50 (MT-2 human T-cells; Table 2b, MT-2 cells): 38000 nM

COc1nc(Nc2ccc(C#N)c(OCC=C(C)C)c2)nc(OC)n1 [Compound 8h]
EC50 (IIIB strain of HIV-1; [1]): 22 nM
CC50 (MT-2 human T-cells; [2]): > 100000 nM

CCOc1ccnc(Nc2ccc(Cl)c(OCC=C(C)C)c2)n1 [Compound 9k]
EC50 (IIIB strain of HIV-1; [1]): 41 nM
CC50 (MT-2 human T-cells; [2]): 19000 nM

CC(C)=CCOc1cccc(Nc2nccs2)c1 [Compound 4a, N-(3-(3-methylbut-2-enyloxy)phenylthiazol)-2-amine]
EC50 (IIIB strain of HIV-1; [11]): 10000 nM
IC50 (MT-2 human T-cells; [13]): 23000 nM

Ethyl 2-(4-methoxy-3-(3-methylbut-2-enyloxy)phenylamino)thiazole-4-carboxylate [Compound 9c]
EC50 (IIIB strain of HIV-1; [1]): 75 nM

CCc1ccnc(Nc2ccc(Cl)c(OCC=C(C)C)c2)n1 [Compound 9p]
EC50 (IIIB strain of HIV-1; [1]): 16 nM
CC50 (MT-2 human T-cells; [2]): 330 nM

CCc1ccc(Nc2nccs2)cc1OCC=C(C)C [Compound 4e, N-(4-ethyl-3-(3-methylbut-2-enyloxy)phenylthiazol)-2-amine]
EC50 (IIIB strain of HIV-1; [11]): 5000 nM
IC50 (MT-2 human T-cells; [13]): 31000 nM

CC(C)=CCOc1cc(Nc2nccc(N)n2)ccc1C [Compound 40b, N^2-(4-Methyl-3-(3-methylbut-2-enyloxy)phenyl)pyrimidin-2,4-diamine]
EC50 (IIIB strain of HIV-1; [3]): 350 nM
IC50 (MT-2 human T-cells; [4]): 6500 nM

CC(C)=CCOc1cc(Nc2ncnc(N)n2)ccc1Cl [Compound 7c]
EC50 (IIIB strain of HIV-1; [1]): 390 nM
CC50 (MT-2 human T-cells; [2]): 48000 nM

CC(C)=CCOc1cc(Nc2nccs2)ccc1C#N [Compound 4h, N-(4-cyano-3-(3-methylbut-2-enyloxy)phenylthiazol)-2-amine]
EC50 (IIIB strain of HIV-1; [11]): 210 nM
EC50 (IIIB strain of HIV-1; [12]): 210 nM
IC50 (MT-2 human T-cells; [13]): 750 nM
IC50 (MT-2 human T-cells; [14]): 750 nM

CC(C)=CCOc1cc(Nc2ncccn2)ccc1C#N [Compound 39h, N-(4-Cyano-3-(3-methylbut-2-enyloxy)phenyl)pyrimidin-2-amine]
EC50 (IIIB strain of HIV-1; Human immunodeficiency virus 1, IIIB, MT2, read-out: EC50): 17 nM
IC50 (MT-2 human T-cells; [4]): < 200 nM
CC50 (MT-2 human T-cells; [2]): 36 nM

C/C=C/COc1cc(Nc2nccc(OC)n2)ccc1Cl [Compound 11c]
fold lower potency (higher EC50) than the corresponding DMA ether (IIIB strain of HIV-1): ca. 10 fold
EC50 (IIIB strain of HIV-1; [15]): 89 nM
CC50 (MT-2 human T-cells; Table 2b, MT-2 cells): 17000 nM

N-(4-Chloro-3-(cyclopentenyloxy)phenyl)thiazol-2-amine [Compound 20d]
EC50 (IIIB strain of HIV-1; [7]): 5000 nM
IC50 (MT-2 human T-cells; [8]): 15000 nM

CSc1ccnc(Nc2ccc(Cl)c(OCC=C(C)C)c2)n1 [Compound 48]
EC50 (IIIB strain of HIV-1; [12]): 180 nM
IC50 (MT-2 human T-cells; [14]): 2800 nM

CC(C)=CCOc1cc(Nc2nccc3ccccc23)ccc1Cl [isoquinoline 62a]
EC50 (IIIB strain of HIV-1; [9]): 34 nM
IC50 (MT-2 human T-cells; [10]): 19000 nM

COc1ccnc(Nc2ccc(Cl)c(OCC=C(C)C)c2)n1 [Compound 42d, N-(4-Chloro-3-(3-methylbut-2-enyloxy)phenyl)-4-methoxypyrimidin-2-amine]
EC50 (IIIB strain of HIV-1; [3]): 10 nM
IC50 (MT-2 human T-cells; [4]): 9000 nM

COc1cc(N)nc(Nc2ccc(Cl)c(OCC=C(C)C)c2)n1 [Compound 9j]
EC50 (IIIB strain of HIV-1; [1]): 3000 nM
CC50 (MT-2 human T-cells; [2]): 19000 nM

Ethyl 2-(4-methyl-3-(3-methylbut-2-enyloxy)phenylamino)thiazole-4-carboxylate [Compound 9b]
EC50 (IIIB strain of HIV-1; [1]): 10 nM
EC50 (IIIB strain of HIV-1; [15]): 10 nM

CC(C)=CCOc1cc(Nc2nccn3cccc23)ccc1Cl [compound 60]
EC50 (IIIB strain of HIV-1; [5]): 19 nM
IC50 (MT-2 human T-cells; [6]): 20000 nM

Clc1ccc(Nc2ncccn2)cc1Oc1ccccc1 [Compound 11b]
fold lower potency (higher EC50) than the corresponding DMA ether (IIIB strain of HIV-1): ca. 100 fold
EC50 (IIIB strain of HIV-1; [15]): 13000 nM
CC50 (MT-2 human T-cells; Table 2b, MT-2 cells): 30000 nM

COc1nc(C)nc(Nc2ccc(Cl)c(OCC=C(C)C)c2)n1 [Compound 7g]
EC50 (IIIB strain of HIV-1; [1]): 100 nM
CC50 (MT-2 human T-cells; [2]): 12000 nM

CC(C)=CCOc1cc(Nc2nccc3occc23)ccc1Cl [compound 54]
EC50 (IIIB strain of HIV-1; [5]): 6 nM
IC50 (MT-2 human T-cells; [6]): 25000 nM

Cc1cn([C@H]2C=C[C@@H](CO)O2)c(=O)[nH]c1=O [d4T, Stavudine, reference compound]
EC50 (IIIB strain of HIV-1; Human immunodeficiency virus 1, IIIB, text b104, read-out: anti-HIV activities in our assay): 3000 nM

CCCc1ccc(Nc2nccs2)cc1OCC=C(C)C [Compound 4f, N-(4-propyl-3-(3-methylbut-2-enyloxy)phenylthiazol)-2-amine]
IC50 (MT-2 human T-cells; [13]): 31000 nM

CCCCCCCOc1cc(Nc2nccs2)ccc1Cl [Compound 23d, N-(4-Chloro-3-(hexylmethoxy)phenyl)thiazol-2-amine]
IC50 (MT-2 human T-cells; [16]): 15000 nM

COc1nc(Cl)nc(Nc2ccc(Cl)c(OCC=C(C)C)c2)n1 [Compound 7f]
CC50 (MT-2 human T-cells; [2]): 26000 nM

Clc1ccc(Nc2nccs2)cc1OCC1CCCCC1 [Compound 22d, N-(4-Chloro-3-(cyclohexylmethoxy)phenyl)thiazol-2-amine]
IC50 (MT-2 human T-cells; [16]): 12000 nM

(2-3-(3-Methylbut-2-enyloxy)phenylamino)thiazol-4-yl)methanol [Compound 10a]
IC50 (MT-2 human T-cells; Table 2, cytotoxicity, MT-2 cells, read-out: IC50): 38000 nM

CCOC(=O)c1csc(Nc2ccc(OC)c(OCC=C(C)C)c2)n1 [Compound 9c, Ethyl 2-(4-methoxy-3-(3-methylbut-2-enyloxy)phenylamino)thiazole-4-carboxylate]
IC50 (MT-2 human T-cells; Homo sapiens, MT2): 15000 nM
